In PMC3668304, “Antidiabetic and antioxidant properties of Ficus deltoidea fruit extracts and fractions” (BMC Complementary and Alternative Medicine, 2013) one finds IC50 data, which are given here for one compound.

Values after ≈ are worked out from the molar mass of the structure shown.

The assay deals with T1, rat intestinal α-glucosidase (substrate pNPG).
T1 construct: gene Si; crude native enzyme from Sigma rat intestinal acetone powder
The assay can be described thus: colorimetric p-nitrophenol release, […] nm. The format is biochemical. The conditions noted are these: substrate 4 mM pNPG (added stock); sodium phosphate buffer; 37°C, 30 min; crude enzyme.

`C[C@H]1O[C@H](O[C@H]2[C@H](O)[C@@H](O)[C@@H](O[C@H]3[C@H](O)[C@@H](O)C(O)O[C@@H]3CO)O[C@@H]2CO)[C@H](O)[C@@H](O)[C@@H]1N[C@H]1C=C(CO)[C@@H](O)[C@H](O)[C@H]1O` (stereo partly shown) [acarbose] returned an IC50 of 57.79 ± 0.66 µg/mL (≈ 89.5 µM).
